Active and inactive are the calls of the source. The calls are words filed in the database; no cut-off is given here.
Experiments:
Mus musculus [1] = assay: Immunopotentiating activity in sheep RBC-immunized BALB/c mouse assessed as increase in isolated splenic […] proliferation administered orally for 14 days followed by incubation of isolated splenocytes with ConA for 72 hrs by MTT assay; type: functional
Mus musculus [2] = assay: Immunopotentiating activity in sheep RBC-immunized BALB/c mouse assessed as increase in isolated splenic T-cell proliferation administered orally for 14 days followed by incubation of isolated splenocytes with LPS for 72 hrs by MTT assay; type: functional
Mus musculus [3] = assay: Immunopotentiating activity in sheep RBC-immunized BALB/c mouse assessed as CD8-positive splenic T-cells at 0.01 mg/kg, po for 14 days by flow cytometry (reference value: 13.3 +/- 0.34%); type: functional
Mus musculus [4] = assay: Immunopotentiating activity in sheep RBC-immunized BALB/c mouse assessed as B-cell activation by measuring IgM antibody titer in serum at 0.001 mg/kg, po for 14 days measured on day 7 post dose by hemagglutinination technique; type: functional, organism-based
Mus musculus [5] = assay: Immunopotentiating activity in sheep RBC-immunized BALB/c mouse assessed as B-cell activation by measuring IgG antibody titer in serum at 0.1 mg/kg, po for 14 days by hemagglutinination technique; type: functional, organism-based
Mus musculus [6] = assay: Immunopotentiating activity in sheep RBC-immunized BALB/c mouse assessed as B-cell activation by measuring IgG antibody titer in serum at 0.001 mg/kg, po for 14 days by hemagglutinination technique; type: functional, organism-based
Splenic lymphocyte [7] = assay: Immunopotentiating activity in splenic lymphocytes (unknown origin) assessed as effect on proliferation by measuring cell viability pretreated followed by incubation of lymphocytes with LPS for 48 hrs by MTT assay; type: functional, cell-based
Mus musculus [8] = assay: Immunopotentiating activity in sheep RBC-immunized BALB/c mouse assessed as ratio of CD4-positive splenic T-cells to CD8-positive splenic T-cells at 0.1 mg/kg, po for 14 days by flow cytometry (RVB = 1.56 +/- 0.09); type: functional
Mus musculus [9] = assay: Immunopotentiating activity in sheep RBC-immunized BALB/c mouse assessed as CD8-positive splenic T-cells at 0.001 mg/kg, po for 14 days by flow cytometry (reference value: 13.3 +/- 0.34%); type: functional
Mus musculus [10] = assay: Immunopotentiating activity in sheep RBC-immunized BALB/c mouse assessed as CD8-positive T-cell content in spleen at 0.001 mg/kg, po for 14 days by flow cytometry (reference value: 1.47 +/- 0.04 10^7No_unit); type: functional
Mus musculus [11] = organism: Mus musculus; assay: Cytotoxicity in BALB/c mouse splenocytes at 100 ug/ml measured after 72 hrs by MTT assay; type: toxicity; details: splenocyte
Mus musculus [12] = assay: Immunopotentiating activity in sheep RBC-immunized BALB/c mouse assessed as increase in delayed-type hypersensitivity response by measuring left hind foot pad thickness at 0.001 mg/kg, po qd administered 2 hrs post immunization for 7 days measured 24 to 48 hrs post SRBC challenge by spheromicrometer method; type: functional, organism-based
Mus musculus [13] = assay: Immunopotentiating activity in sheep RBC-immunized BALB/c mouse assessed as increase in isolated splenic B-cell proliferation administered orally for 14 days followed by incubation of isolated splenocytes with LPS for 72 hrs by MTT assay; type: functional
Splenic lymphocyte [14] = assay: Immunopotentiating activity in splenic lymphocytes (unknown origin) assessed as effect on proliferation by measuring cell viability pretreated followed by incubation of lymphocytes with ConA for 48 hrs by MTT assay; type: functional, cell-based
Mus musculus [15] = assay: Immunopotentiating activity in sheep RBC-immunized BALB/c mouse assessed as CD4-positive splenic T-cells at 0.001 mg/kg, po for 14 days by flow cytometry (reference value: 20.7 +/- 0.9%); type: functional
Mus musculus [16] = assay: Immunopotentiating activity in sheep RBC-immunized BALB/c mouse assessed as CD4-positive T-cell content in spleen at 0.1 mg/kg, po for 14 days by flow cytometry (reference value: 2.7 +/- 0.12 10^7No_unit); type: functional
Mus musculus [17] = assay: Immunopotentiating activity in sheep RBC-immunized BALB/c mouse assessed as CD4-positive splenic T-cells at 0.01 mg/kg, po for 14 days by flow cytometry (reference value: 20.7 +/- 0.9%); type: functional
Mus musculus [18] = assay: Immunopotentiating activity in sheep RBC-immunized BALB/c mouse assessed as CD4-positive splenic T-cells at 0.1 mg/kg, po for 14 days by flow cytometry (reference value: 20.7 +/- 0.9%); type: functional
Mus musculus [19] = assay: Immunopotentiating activity in sheep RBC-immunized BALB/c mouse assessed as B-cell activation by measuring IgM antibody titer in serum at 0.01 mg/kg, po for 14 days measured on day 7 post dose by hemagglutinination technique; type: functional, organism-based
Mus musculus [20] = assay: Immunopotentiating activity in sheep RBC-immunized BALB/c mouse assessed as CD8-positive splenic T-cells at 0.1 mg/kg, po for 14 days by flow cytometry (reference value: 13.3 +/- 0.34%); type: functional
Mus musculus [21] = assay: Immunopotentiating activity in sheep RBC-immunized BALB/c mouse assessed as CD4-positive T-cell content in spleen at 0.001 mg/kg, po for 14 days by flow cytometry (reference value: 2.7 +/- 0.12 10^7No_unit); type: functional
Mus musculus [22] = assay: Immunopotentiating activity in sheep RBC-immunized BALB/c mouse assessed as increase in macrophage production by measuring increase in NO production administered orally for 14 days followed by incubation with LPS for 48 hrs by Griess assay; type: functional
Mus musculus [23] = assay: Immunopotentiating activity in sheep RBC-immunized BALB/c mouse assessed as CD4-positive T-cell content in spleen at 0.01 mg/kg, po for 14 days by flow cytometry (reference value: 2.7 +/- 0.12 10^7No_unit); type: functional
Mus musculus [24] = assay: Immunopotentiating activity in sheep RBC-immunized BALB/c mouse assessed as B-cell activation by measuring IgM antibody titer in serum at 0.1 mg/kg, po for 14 days measured on day 7 post dose by hemagglutinination technique; type: functional, organism-based
Mus musculus [25] = assay: Immunopotentiating activity in sheep RBC-immunized BALB/c mouse assessed as CD8-positive T-cell content in spleen at 0.01 mg/kg, po for 14 days by flow cytometry (reference value: 1.47 +/- 0.04 10^7No_unit); type: functional
Mus musculus [26] = assay: Immunopotentiating activity in sheep RBC-immunized BALB/c mouse assessed as increase in IL4 production in splenocytes administered orally for 14 days followed by incubation with ConA for 48 hrs by ELISA; type: functional, cell-based
Mus musculus [27] = assay: Immunopotentiating activity in sheep RBC-immunized BALB/c mouse assessed as ratio of CD4-positive splenic T-cells to CD8-positive splenic T-cells at 0.001 mg/kg, po for 14 days by flow cytometry (RVB = 1.56 +/- 0.09); type: functional
Mus musculus [28] = assay: Immunopotentiating activity in sheep RBC-immunized BALB/c mouse assessed as increase in isolated splenic T-cell proliferation administered orally for 14 days followed by incubation of isolated splenocytes with ConA for 72 hrs by MTT assay; type: functional
Mus musculus [29] = assay: Immunopotentiating activity in sheep RBC-immunized BALB/c mouse assessed as increase in IL2 production in splenocytes administered orally for 14 days followed by incubation with ConA for 48 hrs by ELISA; type: functional, cell-based
Mus musculus [30] = assay: Immunopotentiating activity in sheep RBC-immunized BALB/c mouse assessed as CD8-positive T-cell content in spleen at 0.1 mg/kg, po for 14 days by flow cytometry (reference value: 1.47 +/- 0.04 10^7No_unit); type: functional
Mus musculus [31] = assay: Immunopotentiating activity in sheep RBC-immunized BALB/c mouse assessed as B-cell activation by measuring IgG antibody titer in serum at 0.01 mg/kg, po for 14 days by hemagglutinination technique; type: functional, organism-based
Mus musculus [32] = assay: Immunopotentiating activity in sheep RBC-immunized BALB/c mouse assessed as ratio of CD4-positive splenic T-cells to CD8-positive splenic T-cells at 0.01 mg/kg, po for 14 days by flow cytometry (RVB = 1.56 +/- 0.09); type: functional
Mus musculus [33] = assay: Immunopotentiating activity in sheep RBC-immunized BALB/c mouse assessed as increase in interferon-gamma production in splenocytes administered orally for 14 days followed by incubation with ConA for 48 hrs by ELISA; type: functional, cell-based
Splenic lymphocyte [34] = assay: Immunopotentiating activity in splenic lymphocytes (unknown origin) assessed as effect on proliferation by measuring cell viability at 0.1 to 1 ug/ml pretreated followed by incubation of lymphocytes with LPS for 48 hrs by MTT assay; type: functional, cell-based
Splenic lymphocyte [35] = assay: Immunopotentiating activity in splenic lymphocytes (unknown origin) assessed as effect on proliferation by measuring cell viability at 10 ug/ml pretreated followed by incubation of lymphocytes with LPS for 48 hrs by MTT assay; type: functional, cell-based
Splenic lymphocyte [36] = assay: Immunopotentiating activity in splenic lymphocytes (unknown origin) assessed as effect on proliferation by measuring cell viability at 10 ug/ml pretreated followed by incubation of lymphocytes with ConA for 48 hrs by MTT assay; type: functional, cell-based
Splenic lymphocyte [37] = assay: Immunopotentiating activity in splenic lymphocytes (unknown origin) assessed as effect on proliferation by measuring cell viability at 0.1 to 1 ug/ml pretreated followed by incubation of lymphocytes with ConA for 48 hrs by MTT assay; type: functional, cell-based

COc1ccccc1C1=NOC(COc2ccc3ccc(=O)oc3c2)C1 (centres undefined)
Activity (Mus musculus [1]): Dose-dependent effect
Activity (Mus musculus [2]): Dose-dependent effect
Activity (Mus musculus [3]): 15.3%
Activity (Mus musculus [4]): Active
Activity (Mus musculus [5]): Active
Activity (Mus musculus [6]): Active
Activity (Splenic lymphocyte [7]): Dose-dependent effect
Ratio (Mus musculus [8]): 1.69
Activity (Mus musculus [9]): 15.4%
Activity (Mus musculus [10]): 0.88 ×10⁷ No_unit
Activity (Mus musculus [11]): Non-Toxic
Activity (Mus musculus [12]): Active
Activity (Mus musculus [13]): Dose-dependent effect
Activity (Splenic lymphocyte [14]): Dose-dependent effect
Activity (Mus musculus [15]): 20.3%
Activity (Mus musculus [16]): 1.51 ×10⁷ No_unit
Activity (Mus musculus [17]): 24.2%
Activity (Mus musculus [18]): 31.1%
Activity (Mus musculus [19]): Active
Activity (Mus musculus [20]): 18.4%
Activity (Mus musculus [21]): 1.02 ×10⁷ No_unit
Activity (Mus musculus [22]): Dose-dependent effect
Activity (Mus musculus [23]): 1.31 ×10⁷ No_unit
Activity (Mus musculus [24]): Active
Activity (Mus musculus [25]): 1.18 ×10⁷ No_unit
Activity (Mus musculus [26]): Dose-dependent effect
Ratio (Mus musculus [27]): 1.32
Activity (Mus musculus [28]): Dose-dependent effect
Activity (Mus musculus [29]): Dose-dependent effect
Activity (Mus musculus [30]): 1.37 ×10⁷ No_unit
Activity (Mus musculus [31]): Active
Ratio (Mus musculus [32]): 1.58
Activity (Mus musculus [33]): Dose-dependent effect

O=c1ccc2ccc(OCC3CC(c4cccc5ccccc45)=NO3)cc2o1 (centres undefined)
Activity (Splenic lymphocyte [34]): Active
Activity (Splenic lymphocyte [35]): Active
Activity (Splenic lymphocyte [36]): Active
Activity (Splenic lymphocyte [37]): Active

O=c1ccc2ccc(OCC3CC(c4ccc(F)cc4)=NO3)cc2o1 (centres undefined)
Activity (Splenic lymphocyte [34]): Active
Activity (Splenic lymphocyte [35]): Active
Activity (Splenic lymphocyte [36]): Active
Activity (Splenic lymphocyte [37]): Active

O=c1ccc2ccc(OCC3CC(c4ccc(Br)cc4)=NO3)cc2o1 (centres undefined)
Activity (Splenic lymphocyte [34]): Active
Activity (Splenic lymphocyte [35]): Active
Activity (Splenic lymphocyte [36]): Active
Activity (Splenic lymphocyte [37]): Active

Cc1ccc(C2=NOC(COc3ccc4ccc(=O)oc4c3)C2)cc1 (centres undefined)
Activity (Splenic lymphocyte [7]): Dose-dependent effect
Activity (Splenic lymphocyte [14]): Dose-dependent effect

Cc1ccccc1C1=NOC(COc2ccc3ccc(=O)oc3c2)C1 (centres undefined)
Activity (Splenic lymphocyte [7]): Dose-dependent effect
Activity (Splenic lymphocyte [14]): Dose-dependent effect
